Test results as given in patent publication US7576094B2, “Spiro derivatives as lipoxygenase inhibitors” (Eli Lilly and Company, priority 2004, dated 2009).
pIC50: −log10 of the molar value.

Target: T1, human recombinant 5-Lipoxygenase (Homo sapiens, UniProt P09917)
T1 sequence (P09917 1-674): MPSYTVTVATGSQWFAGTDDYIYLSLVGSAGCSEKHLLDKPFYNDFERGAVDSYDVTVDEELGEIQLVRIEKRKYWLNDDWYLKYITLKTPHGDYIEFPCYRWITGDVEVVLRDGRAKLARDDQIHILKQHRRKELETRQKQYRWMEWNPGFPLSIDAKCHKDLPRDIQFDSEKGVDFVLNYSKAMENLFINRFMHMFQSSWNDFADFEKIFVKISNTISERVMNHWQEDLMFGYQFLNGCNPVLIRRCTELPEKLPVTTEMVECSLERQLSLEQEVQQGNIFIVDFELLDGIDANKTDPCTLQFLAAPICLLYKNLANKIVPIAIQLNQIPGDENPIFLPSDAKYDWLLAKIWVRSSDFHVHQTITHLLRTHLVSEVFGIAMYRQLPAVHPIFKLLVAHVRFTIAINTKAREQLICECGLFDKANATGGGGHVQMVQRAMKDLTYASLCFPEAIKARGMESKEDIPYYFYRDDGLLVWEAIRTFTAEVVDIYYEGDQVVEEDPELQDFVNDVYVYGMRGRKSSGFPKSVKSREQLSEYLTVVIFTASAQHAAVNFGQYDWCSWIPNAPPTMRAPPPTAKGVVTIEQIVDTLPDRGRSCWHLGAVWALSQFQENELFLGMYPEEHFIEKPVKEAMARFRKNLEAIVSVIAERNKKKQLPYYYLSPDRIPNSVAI
Assay: 5-Lipoxygenase Enzyme Assay
Assay type: biochemical
Details: 70 μM arachidonic acid, 10 minute incubation at room temperature, FOX reagent, absorbance at 620 nm; read-out: inhibition of 5-Lipoxygenase with an IC50
Excerpt: This procedure was used for measuring the enzymatic activity of human recombinant 5-Lipoxygenase using a colorimetric method based on the ferric oxidation of xylenol orange.
• 96 well flat bottom microfilter plates (VWR, Catalog # 62402-933 9295) • Lipoxygenase screening assay buffer (Cayman, Catalog # 760710) • Human recombinant 5-Lipoxygenase (Cayman, Catalog # 60402) • Arachidonic Acid (Sigma, Catalog # A3555) • Xylenol orange tetra sodium salt (Aldrich, Catalog # 227854) • Iron (II) sulfate heptahydrate (Sigma, Catalog # F7002) • Sulfuric acid (95-98%) [18 M] • Methanol Procedure
Human recombinant 5-Lipoxygenase (Cayman Cat # 60402) was used in this assay. The test compound and/or vehicle was added to 0.5 μL 5-Lipoxygenase in 50 mM Tris-HCl buffer, pH 7.4. The reaction was initiated by addition of 70 μM arachidonic acid in Tris-HCl buffer, pH 7.4, and terminated after a 10 minute incubation at room temperature by addition of FOX reagent (25 mM sulfuric acid, 100 μM xylenol orange, 100 μM iron (II) sulfate, methanol:water 9:1). The yellow color of acidified xylenol orange was converted to a blue color by the lipid hydroperoxide-mediated oxidation of Fe^2+ ions and the interaction of the resulting Fe^3+ ions with the dye. The complex was allowed to form during a 1 hour incubation at room temperature with shaking. Absorbance of the Fe^3+ complex was then measured at […] using a spectrophotometer.
Negative controls contained enzyme during the incubation step but substrate was not added until after the FOX reagent. Compounds were screened at 5 concentrations in triplicate starting at 10 μM

Compound	pIC50
CCc1cc2c(c(CC)c1O)C(O)C1(CCC1)CO2 (stereo not drawn) [5,7-diethylspiro[chroman-3,1′-cyclobutane]-4,6-diol]	> 6.52
CONCc1c2c(c(C(C)C)c(O)c1C(C)C)CCC1(CCC1)O2 [5,7-diisopropyl-8-[(methoxyamino)methyl] 3,4-dihydrospiro[chromene-2,1′-cyclobutan]-6-ol]	> 6.52
CCc1c(O)c(C)c(C)c2c1C(NOC)CC1(CCC1)O2 (stereo not drawn) [5-ethyl-4-(methoxyamino)-7,8-dimethyl-3,4-dihydrospiro[chromene-2,1′-cyclobutan]-6-ol]	> 6.52
Cc1c(C)c2c(c(C)c1OC(=O)CN(C)C)CCC1(CCC1)S2 [5′,7′,8′-trimethyl-3′,4′-dihydrospiro[cyclobutane-1,2′-thiochromen]-6′-yl (dimethylamino)acetate]	> 6.52
CC(C)c1c(O)c(C(C)C)c2c(c1C=O)OC1(CCC1)CC2 [6-hydroxy-5,7-diisopropyl-3,4-dihydrospiro[chromene-2,1′-cyclobutane]-8-carbaldehyde]	> 6.52
CO/N=C1\CC2(CCC2)Oc2cc(C)c(O)c(C)c21 [6-hydroxy-5,7-dimethylspiro[chromene-2,1′-cyclobutan]-4(3H)-one O-methyloxime]	> 6.52
Cc1c2c(c(C)c(Cl)c1OC(=O)c1cccnc1)OC1(CCC1)CC2 [7-chloro-5,8-dimethyl-3,4-dihydrospiro[chromene-2,1′-cyclobutan]-6-yl nicotinate]	> 6.52
Cc1c(O)cc2c(c1C)N(c1ccc(S(C)(=O)=O)cc1)CC1(CCC1)C2 [7′,8′-dimethyl-1′-(4-(methylsulfonyl)phenyl)-2′,4′-dihydro-1′H-spiro[cyclobutane-1,3′-quinolin]-6′-ol]	> 6.52
Cc1c(O)cc2c(c1C)N(c1ccc(N3CCNCC3)nc1)CC1(CCC1)C2 [7′,8′-dimethyl-1′-(6-(piperazin-1-yl)pyridin-3-yl)-2′,4′-dihydro-1′H-spiro[cyclobutane-1,3′-quinolin]-6′-ol]	> 6.52
COCc1c(C)c(O)c(C)c2c1OC1(CCC1)CC2 [8-(methoxymethyl)-5,7-dimethyl-3,4-dihydrospiro[chromene-2,1′-cyclobutan]-6-ol]	> 6.52
Cc1c(O)cc(C(C)C)c2c1CCC1(CCC1)O2 [8-isopropyl-5-methyl-3,4-dihydrospiro[chromene-2,1′-cyclobutan]-6-ol]	> 6.52
CCO/N=C1\CC2(CCC2)Oc2cc(C)c(O)c(C)c21 [(4E)-6-hydroxy-5,7-dimethylspiro[chromene-2,1′-cyclobutan]-4(3H)-one O-ethyloxime]	> 6.52
CCO/N=C1/CC2(CCC2)Oc2cc(C)c(O)c(C)c21 [(4Z)-6-hydroxy-5,7-dimethylspiro[chromene-2,1′-cyclobutan]-4(3H)-one O-ethyloxime]	> 6.52
CCCc1ccc([S+](=O)([O-])NCCN2CC3(CCC3)Cc3cc(O)c(C)c(C)c32)cc1 [N-(2-(6′-hydroxy-7′,8′-dimethyl-2′,4′-dihydro-1′H-spiro[cyclobutane-1,3′-quinoline]-1′-yl)ethyl)-4-propylbenzenesulfonamide]	> 6.52
CC(=O)NC1CC2(CCC2)Oc2c(C)c(C)c(O)c(C)c21 (stereo not drawn) [N-(6-hydroxy-5,7,8-trimethyl-3,4-dihydrospiro[chromene-2,1′-cyclobutan]-4-yl)acetamide]	> 6.52
CCCC(=O)NC1CC2(CCC2)Oc2c(C)c(C)c(O)c(C)c21 (stereo not drawn) [N-(6-hydroxy-5,7,8-trimethyl-3,4-dihydrospiro[chromene-2,1′-cyclobutan]-4-yl)butanamide]	> 6.52
COC(=O)CN1CC2(CC2)Cc2cc(O)c(C)c(C)c21 [methyl 2-(6′-hydroxy-7′,8′-dimethyl-2′,4′-dihydro-1′H-spiro[cyclopropane-1,3′-quinoline]-1′-yl)acetate]	> 6.52
COC(=O)c1ccc(N2CC3(CCC3)Cc3cc(O)c(C)c(C)c32)cc1 [methyl 4-(6′-hydroxy-7′,8′-dimethyl-2′,4′-dihydro-1′H-spiro[cyclobutane-1,3′-quinoline]-1′-yl)benzoate]	> 6.52
COC(=O)c1ccc(CN2c3cc(C)c(O)c(C)c3CCC23CCC3)cc1 [methyl 4-((6′-hydroxy-5′,7′-dimethyl-3′,4′-dihydro-1′H-spiro[cyclobutane-1,2′-quinoline]-1′-yl)methyl)benzoate]	> 6.52

More lines, now with the values ahead:

pIC50	Compound
> 6.52	Cc1cc2c(c(C)c1O)CCC1(CCC1)N2Cc1ccc(Cl)cc1 [1′-(4-chlorobenzyl)-5′,7′-dimethyl-3′,4′-dihydro-1′H-spiro[cyclobutane-1,2′-quinolin]-6′-ol]
> 6.52	Cc1c(C)c2c(c(C)c1O)C(O)C1(CCC1)CN2c1ccc(Cl)cc1 (stereo not drawn) [1′-(4-chlorophenyl)-5′,7′,8′-trimethyl-2′,4′-dihydro-1′H-spiro[cyclobutane-1,3′-quinoline]-4′,6′-diol]
> 6.52	Cc1c(O)cc2c(c1C)N(c1ccc(O)cc1)CC1(CCC1)C2 [1′-(4-hydroxyphenyl)-7′,8′-dimethyl-2′,4′-dihydro-1′H-spiro[cyclobutane-1,3′-quinolin]-6′-ol]
> 6.52	Cc1c(C)c2c(c(C)c1O)C(CN)=CC1(CCC1)O2 [4-(aminomethyl)-5,7,8-trimethylspiro[chromene-2,1′-cyclobutan]-6-ol]
> 6.52	CCONC1CC2(CCC2)Oc2cc(CC)c(O)c(CC)c21 (stereo not drawn) [4-(ethoxyamino)-5,7-diethyl-3,4-dihydrospiro[chromene-2,1′-cyclobutan]-6-ol]
> 6.52	CCONC1CC2(CCC2)Oc2c(C)c(C)c(O)c(CC)c21 (stereo not drawn) [4-(ethoxyamino)-5-ethyl-7,8-dimethyl-3,4-dihydrospiro[chromene-2,1′-cyclobutan]-6-ol]
> 6.52	CONC1CC2(CCC2)Oc2c(C)c(C)c(O)c(C)c21 (stereo not drawn) [4-(methoxyamino)-5,7,8-trimethyl-3,4-dihydrospiro[chromene-2,1′-cyclobutan]-6-ol]
> 6.52	CON(C)C1CC2(CCC2)Oc2cc(C)c(O)c(C)c21 (stereo not drawn) [4-[methoxy(methyl)amino]-5,7-dimethyl-3,4-dihydrospiro[chromene-2,1′-cyclobutan]-6-ol]
> 6.52	Cc1cc2c(c(C)c1O)C(OC(C)C)CC1(CCC1)O2 (stereo not drawn) [4-isopropoxy-5,7-dimethyl-3,4-dihydrospiro[chromene-2,1′-cyclobutan]-6-ol]
> 6.52	Cc1c(C)c2c(c(C)c1OC(=O)n1ccnc1)CCC1(CCC1)O2 [5,7,8-trimethyl-3,4-dihydrospiro[chromene-2,1′-cyclobutan]-6-yl 1H-imidazole-1-carboxylate]
> 6.52	Cc1c(C)c2c(c(C)c1OC(=O)CN(C)C)CCC1(CCC1)O2 [5,7,8-trimethyl-3,4-dihydrospiro[chromene-2,1′-cyclobutan]-6-yl (dimethylamino)acetate]
